Patent US20200055948A1, “CELLS EXPRESSING A BCMA-TARGETING CHIMERIC ANTIGEN RECEPTOR, AND COMBINATION THERAPY WITH A GAMMA SECRETASE INHIBITOR” (Novartis AG, priority 2017, published 2020)
pEC50: −log10 of the molar value.

What was measured:
shed/soluble BCMA = assay: GSI inhibition of shed/soluble BCMA (sBCMA), ELISA of supernatants after 72 hours, NCI-H929, MM1S, U266B1 (Example 2, Table 30, FIG. 3); format: cell-based, human; details: for pEC50: Homo sapiens, 72 hours, ELISA of supernatants; for efficacious concentrations, rank among the panel of GSIs: inhibition of BCMA shedding and enhancement of membrane BCMA, Table 30
Procedure: (§1) FIG. 3 is a panel of graphs comparing soluble/shed BCMA (sBCMA) levels to membrane-bound BCMA (mBCMA) levels in MM1S cell cultures treated with various gamma secretase inhibitors for 72 hours.
(§2) Target human cancer cell lines expressing various levels of human BCMA (NCI-H929^[High], MM1S^[med], U266B1^[low]) were all transduced to constitutively express luciferase, which is used to measure cell viability/survival with the BrightGlo reagent (Promega E2650). Target cells were plated 30,000 cells per well in a 96 well plate (Costar 3904) together with serial dilutions of a panel of gamma secretase inhibitors (Table 29). The plate was incubated at 37° C./5% CO2 for 72 hours, followed by measurements of cell viability (BrightGlo, Promega # E2650) according to vendor protocol. In a replicate set of assay plates, cell culture supernatants were collected by centrifugation and quantified for levels of soluble BCMA by ELISA (R&D Systems, DY193), and the remaining cells were stained with a PE conjugated BCMA antibody (clone 19F2, Biolegend 357504) and analyzed by flow cytometry for BCMA cell surface expression levels.
(§3) Raw OD450 values from the BCMA ELISA were plotted together with the mean fluorescent intensity values from flow cytometry analysis of cells stained with anti-BCMA antibody, and are shown for MM1S cells treated with the various GSIs in FIG. 3. Table 30 summarizes the EC50 results of all the GSIs on the three BCMA-expressing cell lines.

membrane BCMA expression = assay: GSI enhancement of membrane BCMA (mBCMA) expression, flow cytometry after 72 hours, NCI-H929, MM1S, U266B1 (Example 2, Table 30, FIG. 3); format: cell-based; details: Homo sapiens
Procedure: as §1, §2, §3

[1] = test system: BCMA cell surface expression; assay: BCMA cell surface expression by flow cytometry with PE conjugated BCMA antibody, with or without GSI (Example 1, FIG. 1); format: cell-based, human; details: BCMA-expressing multiple myeloma cell lines
Procedure: FIG. 1 is a set of histogram plots showing the staining of BCMA-expressing human cancer cell lines, NCI-H929, MM1S, and U266B1, using a PE conjugated anti-BCMA antibody. The cell lines were untreated, or treated with 1.0 μM DAPT or 0.1 μM LY-411,575 before subjected to a flow cytometry analysis.
Human cancer cell lines expressing various levels of human BCMA (NCI-H929^[High] MM1S^[Med], and U266B1^[low]) were all transduced to constitutively express luciferase, which is used to measure cell viability/survival with the BrightGlo reagent (Promega # E2650).
BCMA expressing cell lines were treated overnight with and without GSIs. Cell culture supernatants were collected and quantified for levels of soluble BCMA by ELISA (R&D Systems, # DY193). Additionally, remaining cells were pelleted, stained with a PE conjugated BCMA antibody (clone 19F2, Biolegend #357504) and analyzed by flow cytometry for BCMA cell surface expression levels.
BCMA cell surface expression level was determined by flow cytometry on cell lines with or without GSI treatment.

soluble BCMA = assay: Soluble BCMA in supernatants of MM cell lines U266 or RPMI 8226 by sandwich ELISA after 48 hrs GSI (Example 3, FIGS. 5A and 5B); format: cell-based, human; details: RPMI 8226 cells treated, 6 μM-100 μM
Procedure: FIGS. 5A and 5B are a pair of graphs showing that a gamma secretase inhibitor reduces soluble BCMA released by MM cell lines. In FIGS. 5A and 5B, the amount of soluble BCMA (pg/ml) as measured by ELISA is plotted for each GSI concentration tested.
MM cell lines U266 or RPMI 8226 were incubated with several concentrations (6 μM-100 μM) of Ly 411575 gamma secretase inhibitor (Miltenyi) for 48 hrs. Supernatants were collected and secreted BCMA was measured using a sandwich ELISA (BCMA/TNFRSF17 ELISA Duo set, R&D Systems).

Structure (SMILES) | pEC50 (shed/soluble BCMA; MM1.S, MM1S cells) | pEC50 (shed/soluble BCMA; NCI-H929, H929 cells) | pEC50 (shed/soluble BCMA; U266B1 cells) | pEC50 (membrane BCMA expression; MM1.S, MM1S cells) | pEC50 (membrane BCMA expression; NCI-H929, H929 cells) | pEC50 (membrane BCMA expression; U266B1 cells) | efficacious concentrations, rank among the panel of GSIs (shed/soluble BCMA) | cell surface expression of BCMA (in words) [1] | secreted BCMA (soluble BCMA)
O=S(=O)(N[C@@H](CO)C(C(F)(F)F)C(F)(F)F)c1ccc(Cl)s1 [PF-5212362, (R)-5-chloro-N-(4,4,4-trifluoro-1-hydroxy-3-(trifluoromethyl)butan-2-yl)thiophene-2-sulfonamide] | 6.92 | 6.86 | 6.23 | 7.28 | 7.86 | 6.25 |  |  | 
CC(C)[C@H](O)C(=O)N[C@@H](C)C(=O)N[C@@H]1C(=O)N(C)CCc2ccccc21 [LY-450139, (S)-2-hydroxy-3-methyl-N—((S)-1-(((S)-3-methyl-2-oxo-2,3,4,5-tetrahydro-1H-benzo[d]azepin-1-yl)amino)-1-oxopropan-2-yl)butanamide] | 7.19 | 7.00 | 6.63 | 7.39 | 7.26 | 6.72 |  |  | 
C[C@H](c1ccc(F)cc1CCCC(=O)O)N(c1cc(F)ccc1F)S(=O)(=O)c1ccc(Cl)cc1 [BMS-299897] | 6.10 | 6.28 |  | 6.31 | 6.82 | 5.77 | least |  | 
CC(C)(C(=O)NCC(F)(F)C(F)(F)F)C(=O)N[C@@H]1C(=O)Nc2ccccc2-c2ccccc21 [RO4929097] | 8.34 | 8.52 | 8.21 | 8.49 | 8.36 | 8.00 |  |  | 
NC(=O)[C@@H](CCC(F)(F)F)N(Cc1ccc(-c2ncon2)cc1F)S(=O)(=O)c1ccc(Cl)cc1 [BMS-708163, (R)-2-((4-chloro-N-(2-fluoro-4-(1,2,4-oxadiazol-3-yl)benzyl)phenyl)sulfonamido)-5,5,5-trifluoropentanamide] | 7.88 | 8.60 | 7.53 | 8.13 | 8.44 | 7.49 |  |  | 
C[C@H](NC(=O)[C@@H](O)c1cc(F)cc(F)c1)C(=O)N[C@@H]1C(=O)N(C)c2ccccc2-c2ccccc21 [LY-411575, (S)-2-((S)-2-(3,5-difluorophenyl)-2-hydroxyacetamido)-N—((S)-5-methyl-6-oxo-6,7-dihydro-5H-dibenzo[b,c]azepin-7-yl)propanamide] | 10.00 | 9.70 | 10.00 |  | 10.00 | 10.00 | most potent | strongly enhances | 200 pg/mL

The next lines start with results.

pEC50 (shed/soluble BCMA; MM1.S, MM1S cells) | pEC50 (shed/soluble BCMA; NCI-H929, H929 cells) | pEC50 (shed/soluble BCMA; U266B1 cells) | pEC50 (membrane BCMA expression; MM1.S, MM1S cells) | pEC50 (membrane BCMA expression; NCI-H929, H929 cells) | pEC50 (membrane BCMA expression; U266B1 cells) | Structure (SMILES) | efficacious concentrations, rank among the panel of GSIs (shed/soluble BCMA) | cell surface expression of BCMA (in words) [1] | secreted BCMA (soluble BCMA)
7.49 | 7.46 | 7.17 | 7.44 | 7.50 | 7.15 | CCC[C@H](N[C@H]1CCc2cc(F)cc(F)c2C1)C(=O)Nc1cn(C(C)(C)CNCC(C)(C)C)cn1 [PF-3084014, (S)-2-(((S)-6,8-difluoro-1,2,3,4-tetrahydronaphthalen-2-yl)amino)-N-(1-(2-methyl-1-(neopentylamino)propan-2-yl)-1H-imidazol-4-yl)pentanamide] |  |  | 
6.84 | 6.66 | 6.34 | 7.01 | 6.84 | 6.40 | C[C@H](NC(=O)Cc1cc(F)cc(F)c1)C(=O)N[C@H](C(=O)OC(C)(C)C)c1ccccc1 [DAPT] |  | strongly enhances | 
6.25 | 6.57 | 5.98 | 6.48 | 7.16 | 5.92 | O=C(O)CC[C@H]1CC[C@@](c2cc(F)ccc2F)(S(=O)(=O)c2ccc(Cl)cc2)CC1 [MK-0752, 3-((1S,4R)-4-((4-chlorophenyl)sulfonyl)-4-(2,5-difluorophenyl)cyclohexyl)propanoic acid] |  |  | 
